Results taken from US11339203B2, “Antitumor peptide and use thereof” (TOAGOSEI CO., LTD., priority 2018, dated 2022).
Where two headings read alike, the source gives them in different places. Where no end group is shown, it is not given here.

What was measured:
[1] = test system: human kidney cancer cell line (CAKI2); type: cell-based; settings: human, 48 h
Protocol: The antitumor activity of each sample peptide synthesized in above-mentioned Test Example 1 was evaluated targeted in human-derived cultured tumor cells. More specifically, a human kidney cancer cell line (CAKI2) that is currently commercially available was used for the test tumor cells. CAKI2 cells were cultured and adjusted to cell count of about 5×10^3 cells per single well of 96-well plate. The amount of medium at this time was made to be 100 μL per well. Next, the 96-well plate was arranged in a CO2 incubator and incubated for about 1 day (21 hours to 24 hours) under conditions of 37° C. and 5% CO2. Subsequently, peptide-containing test media were respectively prepared for each concentration so that the concentration of each sample peptide targeted for evaluation was 12.5 μM and 25 μM followed by supplying to the wells in which the cells targeted for evaluation were cultured (namely, the wells following the above-mentioned incubation) so that the amount of media was 90 μL per well. The 96-well plate was then returned to CO2 incubator followed by incubating for 48 hours under conditions of 37° C. and 5% CO2. The number of wells (n) at each concentration in each peptide addition test group was set to 3. Thus, the values of the results indicated in the following table are the average values of the results respectively obtained for 3 test wells. Cell viability (%) was determined in the manner described below. Following completion of incubation for 48 hours as described above, the medium in each well was replaced with 100 μL of fresh medium not containing peptide followed by further adding a reagent for measuring cell proliferation in the form of “Cell Counting Kit-8” (Dojindo Laboratories) containing “water-soluble tetrazolium salt (WST-8)” as a coloring reagent at 10 μL per well. Subsequently, the 96-well plate was again returned to CO2 incubator and incubated for 1.5 hours to 2 hours under conditions of 37° C. and 5% CO2. Following completion of incubation, cell viability (%) was evaluated using a colorimetric method consisting of recovering the cell culture liquid containing the above-mentioned reagent together with measuring absorbance at wavelength of 450 nm based on reduction of tetrazolium salt (value corrected for absorbance at a wavelength of 650 nm: A450 to A650). More specifically, the cell viability (%) of each test cell line was calculated from the measured absorbance as a relative value based on cell viability of 100% for the measured value (measured absorbance) of the comparison test group that underwent incubation for 48 hours as described above in only medium not containing peptide. McCoy's 5A medium (Gibco) containing 2 mM L-glutamine, 3,000 mg/L of glucose, 100 units/mL of penicillin, 100 μg/mL of streptomycin and 10% fetal bovine serum (FBS).

tumor cells = assay: Antitumor activity of the TM2-TAT peptide (data not shown); type: cell-based; settings: detailed data not shown

## CC[C@H](C)[C@H](NC(=O)[C@H](CCCNC(=N)N)NC(=O)[C@H](CS)NC(=O)[C@H](Cc1ccc(O)cc1)NC(=O)[C@H](CC(C)C)NC(=O)[C@@H](NC(=O)[C@@H](NC(=O)[C@@H](NC(=O)[C@H](CO)NC(=O)[C@H](CC(C)C)NC(=O)[C@H](CC(C)C)NC(=O)[C@H](CC(C)C)NC(=O)[C@H](CC(C)C)NC(=O)[C@@H](NC(=O)[C@H](Cc1ccccc1)NC(=O)[C@@H](NC(=O)[C@@H](NC(=O)[C@@H](NC(=O)[C@H](CS)NC(=O)[C@H](Cc1ccccc1)NC(=O)[C@H](CC(C)C)NC(=O)[C@@H](NC(=O)[C@H](Cc1ccc(O)cc1)NC(=O)[C@H](Cc1c[nH]cn1)NC(=O)[C@H](CCCCN)NC(=O)[C@H](Cc1c[nH]cn1)NC(=O)[C@H](Cc1ccc(O)cc1)NC(=O)[C@@H](N)CC(C)C)[C@@H](C)CC)[C@@H](C)O)[C@@H](C)O)C(C)C)[C@@H](C)O)[C@@H](C)CC)C(C)C)[C@@H](C)CC)C(=O)N[C@@H](CCCCN)C(=O)N[C@@H](CCCCN)C(=O)N[C@@H](CCCNC(=N)N)C(=O)N[C@H](C(=O)N[C@@H](CC(C)C)C(=O)N[C@@H](CCCNC(=N)N)C(=O)N[C@@H](CCCCN)C(=O)N[C@@H](CC(N)=O)C(=O)N[C@@H](CC(=O)O)C(=O)N[C@@H](CCCNC(=N)N)C(=O)N[C@@H](CCCCN)C(=O)N[C@@H](CCCCN)C(=O)N[C@@H](CCCNC(=N)N)C(N)=O)[C@@H](C)O [Sample 5]
[1]; 12.5 μM
  Cell Viability (%): 73.3%
[1]; 25 μM
  Cell Viability (%): 77.6%

## VIIVLSVFIACWAPLFILLLLKKRTLRKNDRKKR-NH2 [Sample 6]
[1]; 12.5 μM
  Cell Viability (%): 69.3%
[1]; 25 μM
  Cell Viability (%): 59.7%

## LFRAEYFLVLAVLNSGTNPIIKKRTLRKNDRKKR-NH2 [Sample 7]
[1]; 12.5 μM
  Cell Viability (%): 98.9%
[1]; 25 μM
  Cell Viability (%): 66.3%

## FLLISACWVISLILGGLPIMGWKKRTLRKNDRKKR-NH2 [Sample 4]
[1]; 12.5 μM
  Cell Viability (%): 70.6%
[1]; 25 μM
  Cell Viability (%): 85.6%

## SEQ ID NO: 33: synthetic peptide binding SEQ ID NO: 23 (TAT sequence of HIV) to the C-terminal side of SEQ ID NO: 2 (S1PR1 second TM region) (FIGNLALSDLLAGVAYTANLLLRKKRRQRRR)
Tumor cells
  antitumor activity: demonstrated antitumor activity

## WFLREGSMFVALSASVFSLLAIKKRTLRKNDRKKR-NH2 [Sample 3]
[1]; 12.5 μM
  Cell Viability (%): 68%
[1]; 25 μM
  Cell Viability (%): 45.8%
